# Measured values from patent US20240002405A1, “ANTIMICROBIAL COMPOUNDS, SYNTHESIS METHODS, AND USES THEREOF” (Ankh Life Sciences Limited, priority 2022, published 2024).
# Where “and” joins values, the source holds several entries; their conditions need not be identical. Equal values may be shown once. Where a name gives a salt, the structure may show the parent alone. Read-outs that look alike come from different tables or passages of the source.
# Legend:
# [1] = system: Candida albicans (ATCC 18804); assay: Antifungal broth microdilution MIC assay; format: cell-based; settings: Candida albicans, ATCC18804, C. albicans, read-out: MIC (antifungal growth inhibition)
# Method: Synthesized compounds were tested for antifungal activity towards the fungus strain, Candida albicans. […] Different concentrations of the compounds were tested for the exact same number of fungi, and the growth is monitored with time. MIC was determined by using the broth microdilution assay. Fungus strain, C. albicans was purchased from ATCC (ID: 18804) for the studies. […] This solution was used to make a working solution by preparing a 1:50 dilution, followed by a 1:20 dilution, with RPMI 1640 medium to obtain 2× test inoculum. The 2× inoculum is diluted 1:1 to achieve the final inoculum size (0.5×10^3 to 2.5×10^3 cells per mL). RPMI 1640 medium was used with L-glutamine and phenol red as a pH indicator but without bicarbonate and a glucose concentration of 0.2%. […] All plates were then read visually under normal laboratory lighting using a mirror viewer. Wells were scored for the growth compared to that of the drug free control well. Plates were read at 530 nm with subtraction of the blank from the reading of each well. Turbidity (OD) increases as the fungus grows over time.
# [2] = system: E. coli (ATCC 25922); assay: Broth microdilution MIC assay, E. coli; settings: for MIC: Escherichia coli
# Method: (§2) The concentration of compound required to visibly stop the growth of bacteria is known as minimum inhibitory concentration (MIC). Different concentrations of the compounds are tested for the exact same number of bacteria, and the growth is monitored with time.
# (§3) Bacterial strains were purchased from the American Type Culture Collection (ATCC) for the studies.
# (§4) The MIC assay procedure follows the guidelines set by the Clinical Laboratory Sciences Institute (CLSI).
# (§5) To do this, bacteria were transferred from pure agar culture, aseptically transferred in 5 mL of Cation-Adjusted Mueller-Hinton Broth (CAMHB). The broth was incubated overnight at 35° C. to stationary phase to achieve a turbidity suspension. A spectrophotometer (SpectraMax ID5) was used to measure the turbidity (optical density—OD at 625 nm). The inoculum was prepared by adjusting the turbidity of overnight culture to 0.5 McFarland, which is equal to the defined number of bacteria 1×10^8 CFU/ml.
# (§6) (b) Compound Dilution: All compounds used in the study were dissolved in sterile ultra-pure DMSO (VWR International, PA, USA) and maintained at −80° C. Stock solution of the compound was freshly prepared the day of use or is prepared from a frozen stock solution stored at −80° C. […] The compound solution was prepared at a desired concentration in DMSO, and 1/10 dilution was performed in a sterile CAMHB medium. This 10-fold dilution of stock solution was used for a 2-fold serial dilution in a 96-well plate to observe an inhibitory effect of the compound on bacterial growth. 100 μL of diluted drug solution was transferred to a first column of the 96-well plate. 50 μL of sterile CAMHB was transferred to each well from well 2 to well 12. Next, 50 μL was removed from well 1 and added to well 2. The contents from well 2 were mixed by pipetting up and down. Next, 50 µL were removed from well 2 and added to well 3. This process was continued till well 11 is reached. 50 μL was discarded from the well 11. Each compound concentration was tested in triplicate.
# (§7) (c) Inoculation of 96-well plate: The same number of bacteria (1×10^5 CFU/mL) were prepared after 150-fold dilution of 0.5 McFarland inoculum and used to add in the wells of different drug concentrations. 50 μL of working inoculum was carefully added to each well, except the sterility well 12. Mixing is performed by gently flushing the inoculum in and out of the pipette tip four or five times, avoiding splashing and bubble formation.
# (§8) (d) Incubation: Plates were incubated at 35° C. for 24 hours without shaking or agitation.
# (§9) (e) Determination of MIC: After 18-24 hours of incubation, the plates were read for MIC. SpectraMax iD5 microplate reader was used to measure turbidity at different time points. Turbidity (OD) increases as the bacteria grow over time.
# [3] = system: S. aureus (ATCC 29213); assay: Broth microdilution MIC assay, S. aureus; settings: for MIC: Staphylococcus aureus
# Method: as §2, §3, §4, §5, §6, §7, §8, §9
# [4] = system: MRSA: S. aureus resistant to methicillin and oxacillin (ATCC 43300); assay: Broth microdilution MIC assay, MRSA; settings: for MIC: Staphylococcus aureus, ATCC43300|MRSA, read-out: MIC (bacterial growth inhibition)
# Method: as §2, §3, §4, §5, §6, §7, §8, §9
# [5] = system: S. aureus (ATCC 29213); assay: Minimum bactericidal concentration (MBC) assay, S. aureus; format: cell-based; settings: Staphylococcus aureus, S. aureus
# Method: (§1) (f) Determination of MBC: MBC was determined by sampling all the macroscopically clear wells. Before sampling, the wells were gently mixed by flushing them with a pipette, and a 5 μL was removed and placed on an agar plate suitable for the growth of the microbe being tested. The agar plate was divided into three parts to test three trials of a single concentration. The sample was allowed to be absorbed into the agar for ˜30 minutes. The plates were then incubated for 24 hours at 37° C. After incubation, the plates were examined to determine the compound concentration at which 99.9% killing was achieved.
# [6] = system: MRSA (ATCC 43300); assay: Minimum bactericidal concentration (MBC) assay, MRSA; format: cell-based; settings: Staphylococcus aureus, MRSA
# Method: as §1
# [7] = Solubility in DMSO; format: physicochemical
# [8] = system: gram positive and negative bacteria; assay: Antibacterial testing against gram positive and negative bacteria; format: cell-based
# Method: In addition to the harmaline dimers compounds, other bicyclic indole compounds (203, 233, 476/6 and 504/6,) were also tested against gram positive and negative bacteria. Particularly, the indole ethyl urea molecules 203, 233 and the tryptamide dimer molecules 476/6, 504/6, as shown below, were tested.
# [9] = system: engineered Salmonella typhimurium strain (umuC, β-galactosidase)
# Text: The EBPI UMU-ChromoTest™ assay is used for the detection and quantification of genotoxicity of compounds and is based on the International Organization for Standardization protocol ISO 13829. The UMU-ChromoTest™ assay utilizes a native bacterial mechanism for the detection of compound genotoxicity. The bacteria used for the assay is an engineered Salmonella typhimurium strain developed to include a gene coding for the β-galactosidase (β-gal) enzyme tethered to the umuC, a damage response gene. DNA damage activates the SOS system to transcribe β-gal proportional to the level of SOS induction. The UMU-ChromoTest™ bacterial strain has modifications to increase sensitivity to genotoxins with (a) increased sensitivity for even limited damage, (b) modified outer membrane of the cell to increase permeability to exogenous materials, and (c) production of a color change on addition to chromogenic substrate (ONPG), which is a quantitative measure of genotoxic damage to bacterial DNA.
# Rehydration of Dried Bacteria and Culture Growth: The bacteria were rehydrated and incubated at 37° C. for 16-18 hours. OD600 of the overnight culture should be 0.5 or at least above 0.1 at 600 nm.
# Sample Preparation and Plate Setup: The dimer compounds were dissolved in DMSO. All dilution and controls were made in the solvent of 10% DMSO in sterile 0.85% saline. The pH of the compounds was adjusted to 7.0±0.2 before incubation with bacteria to facilitate bacterial growth and prevent degradation of ONPG later in the assay. The solutions of hydrochloric acid and sodium hydroxide were used to adjust pH with minimal addition volumes to prevent excessive sample dilution. Six samples were run at 4 dilutions at a time.
# Preliminary Dilution of Bacteria: The overnight bacterial culture was diluted to 50% by performing a reinoculation with 5 mL of overnight growth and 5 mL of fresh Growth media. The reinoculated bacteria was inoculated for 1.5 hours at 37° C. The OD600 should be approximately 80% of the reading from overnight growth or slightly higher.
# Preparation of Plate A: Distilled water (180 μL) was added to all wells, except for rows A to F, columns 1 to 3 and row H, columns 1 to 6. Rows A to F are used for 6 compounds per plate. The test compounds (360 μL) were added to the first three wells (three replicates) of the same microplate, such that wells 1-3 were a triplicate set of the highest concertation of test compound (360 μL). Wells 4-12 each contained 180 μL of distilled water. For dilution, half of the contents (180 μL) from wells 1-3 was transferred to wells 4-6 which makes a second triplicate set. For a third dilution, half of the contents from wells 4-6 were transferred to 7-9, and for the fourth triplicate set, half of the contents from wells 7-9 was transferred to 10-12. […]
# [10] = ATCC29213, read-out: MIC (bacterial growth inhibition), S. aureus, time not given
# [11] = ATCC29213, 24 h, read-out: MBC (kills bacteria)
SMILES,"MIC [3, 10]",MIC [4],MIC (bacterial growth inhibition) ([2]; E. coli),"MBC [5, 11]",MBC ([6]; read-out: MBC),MBC ([6]; read-out: MRSA-MBC),bacteriostatic/bactericidal activity [8],further results
COc1ccc2c3c([nH]c2c1)C(/C=C/c1cc(Br)ccc1N)=NCC3 [GK395],25 µg/mL,–,–,–,–,–,–,MIC ([1]; after 48 hours of incubation): 50 µg/mL; concentration showing ~50% growth inhibition ([2]; E. coli): 3.5 µg/mL
COc1ccc2c3c([nH]c2c1)C(CC(CC1=NCCc2c1[nH]c1cc(OC)ccc21)c1c[nH]c2cccc([N+](=O)[O-])c12)=NCC3 [GK600],3.1 µg/mL,2.75 µg/mL,6.25 µg/mL,–,–,–,–,"MIC ([2]; ATCC25922, read-out: MIC (bacterial growth inhibition), E. coli): 12.5 µg/mL; MIC (bacterial growth inhibition) ([3]; S. aureus, time not given): 3.5 µg/mL"
COc1ccc2c3c([nH]c2c1)C(CC(CC1=NCCc2c1[nH]c1cc(OC)ccc21)c1cncs1)=NCC3 [GK524],32.7 µg/mL,16.4 µg/mL,No bacteriostatic or bactericidal activities were observed,65.5 µg/mL,32.7 µg/mL,62.5 µM,show bacteriostatic and bactericidal activity,"MBC ([5]; ATCC29213, read-out: MBC (bactericidal activity)): 125 µM; MIC ([1]; after 24 hours of incubation): 12.2 µg/mL; MIC ([1]; after 48 hours of incubation): 25 µg/mL; solubility in DMSO (time to dissolve) [7]: instantly; higher efficacy than harmaline ([3]; antibacterial efficacy versus harmaline): ~15 fold; higher antibacterial activity than harmaline dimer without a substitution (GZ440/6) ([3]; versus GZ440/6): 1.75 fold"
NC(=O)NCCc1c[nH]c2ccccc12 [Compound 203],–,–,–,–,–,–,no bacteriostatic/bactericidal activity observed,–
"COc1ccc2c3c([nH]c2c1)C(C)=NCC3 [Harmaline, reference compound]",–,–,–,–,–,–,–,"MIC ([2]; ATCC25922, read-out: MIC (bacterial growth inhibition)): 707 µg/mL and 3300 µM; MIC ([3]; ATCC29213, read-out: MIC (bacterial growth inhibition)): 707 µg/mL and 3300 µM"
COc1ccc2c3c([nH]c2c1)C(CC(CC1=NCCc2c1[nH]c1cc(OC)ccc21)C1CC1)=NCC3 [GK480],–,–,–,–,–,–,–,concentration at which activity is shown ([2]; E. coli): 50 µg/mL; concentration at which activity is shown ([3]; S. aureus): 3.25 µg/mL
COc1ccc2c3c([nH]c2c1)C(CC(CC1=NCCc2c1[nH]c1cc(OC)ccc21)c1ccncc1)=NCC3 [GK517.4],–,–,no activity was observed,64.7 µg/mL,> 129 µg/mL,> 250 µM,–,"MIC ([4]; 24 h): 64.7 µg/mL; MIC ([3]; ATCC29213, 24 h, read-out: MIC (bacterial growth inhibition), S. aureus, up to 24 hours): 64.7 µg/mL"
COc1ccc2c3c([nH]c2c1)C(CC(CC1=NCCc2c1[nH]c1cc(OC)ccc21)c1ccc(C(F)(F)F)nc1)=NCC3 [GK585],73.2 µg/mL,73.2 µg/mL,No bacteriostatic or bactericidal activities were observed,> 146 µg/mL,> 146 µg/mL,> 250 µM,–,genotoxicity ([9]; at 12.5 and 25 μM): no genotoxicity; genotoxicity ([9]; at 50 and 100 μM): interfered with testing protocols
COc1ccc2c3c([nH]c2c1)C(CC(CC1=NCCc2c1[nH]c1cc(OC)ccc21)c1c[nH]c2ccc(C(=O)O)cc12)=NCC3 [GK599.HCl],–,–,–,–,–,–,–,concentration at which activity is shown ([4]; MRSA): 12.5 µg/mL; concentration at which activity is shown ([2]; E. coli): 50 µg/mL; concentration at which activity is shown ([3]; S. aureus): 12.5 µg/mL
COc1ccc2c(CCNC(=O)CC(C)(C)CC(=O)NCCc3c[nH]c4cc(OC)ccc34)c[nH]c2c1 [504/6],–,–,–,–,–,–,no bacteriostatic/bactericidal activity observed,–
